Measurements reported in US9481654B2, “Compositions and methods for inhibition of the JAK pathway” (Rigel Pharmaceuticals, Inc., priority 2006, dated 2016).
pIC50: −log10 of the molar value.

Assays:
[1] = system: IL-4 stimulated CD23 upregulation in human Ramos B cells (JAK-1/JAK-3, Stat-6); test: Assay for Ramos B-Cell Line Stimulated with IL-4 (CD23 upregulation, FACS); format: cell-based; settings: Table III Example 3
Summary of the method: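 Flow cytometry of CD23 staining after 20-24 h IL-4 stimulation (50 units/mL final) of human Ramos B cells in RPMI with 5% serum. Cells, 5×10^4 per point, received compound or DMSO vehicle for 1 h at 37° C prior to stimulation.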

[2] = system: primary human T-cells (IL-2 induced proliferation, JAK-1/JAK-3, Stat-5); test: Primary Human T-Cell Proliferation Assay Stimulated with IL-2 (CellTiter-Glo); format: cell-based; settings: Table III Example 4
Summary of the method: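 Read-out is intracellular ATP luminescence (CellTiter-Glo) after 72 h at 37 °C of IL-2-driven growth. Cells, pre-stimulated via TCR and CD28 then washed free of IL-2, were resuspended in Yssel's medium, given 80 U/mL IL-2 in the cell suspension plus duplicate compound; unstimulated wells lacked IL-2.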

[3] = system: IFNγ induced ICAM-1 (CD54) up-regulation in A549 lung epithelial cells (JAK/Stat pathway); test: A549 Epithelial Line Stimulated with IFNγ (ICAM-1 surface expression, flow cytometry); format: cell-based, human; settings: Table III Example 5
Text: The activity of the compounds of the invention may additionally be characterized by assaying the effect of the 2,4-pyrimidinediamine compounds described herein on A549 lung epithelial cells and U937 cells. A549 lung epithelial cells and U937 cells up-regulate ICAM-1 (CD54) surface expression in response to a variety of different stimuli. Therefore, using ICAM-1 expression as readout, test compound effects on different signaling pathways can be assessed in the same cell type. Stimulation with IL-1β through the IL-1β receptor activates the TRAF6/NFκB pathway resulting in up-regulation of ICAM-1. IFNγ induces ICAM-1 up-regulation through activation of the JAK1/JAK2 pathway. The up-regulation of ICAM-1 can be quantified by flow cytometry across a compound dose curve and EC50 values are calculated. Exemplary assays of this type are described in greater detail in Examples 5 and 6.
A549 lung epithelial cells up-regulate ICAM-1 (CD54) surface expression in response to a variety of different stimuli. Therefore, using ICAM-1 expression as readout, compound effects on different signaling pathways can be assessed in the same cell type. IFNγ up-regulates ICAM-1 through activation of the JAK/Stat pathway. In this example, the up-regulation of ICAM-1 by IFNγ was assessed.
The A549 lung epithelial carcinoma cell line originated from the American Type Culture Collection. Routine culturing was with F12K media (Mediatech Inc., Lenexa, Kans., Cat. No. 10-025-CV) with 10% fetal bovine serum, 100 I.U. penicillin and […] streptomycin (complete F12k media). Cells were incubated in a humidified atmosphere of 5% CO2 at 37° C. Prior to use in the assay, A549 cells were washed with PBS and trypsinized (Mediatech Inc., Cat. No. 25-052-CI) to lift the cells. The trypsin cell suspension was neutralized with complete F12K media and centrifuged to pellet the cells. The cell pellet was resuspended in complete F12K media at a concentration of 2.0×10^5/mL. Cells were seeded at 20,000 per well, 100 μL total volume, in a flat bottom tissue culture plate and allowed to adhere overnight.
On day two, A549 cells were pre-incubated with a 2,4-pyrimidinediamine test compound or DMSO (control) (Sigma-Aldrich, St. Louis, Mo., Catalog No. D2650) for 1 hour. The cells were then stimulated with IFNγ (75 ng/mL) (Peprotech Inc., Rocky Hill, N.J., Cat. No. 300-02) and allowed to incubate for 24 hours. The final test compound dose range was 30 μM to 14 nM in 200 μL F12K media containing 5% FBS, 0.3% DMSO.
On day three, the cell media was removed and the cells were washed with 200 μL PBS (phosphate buffered saline). Each well was trypsinized to dissociate the cells, then neutralized by addition of 200 μL complete F12K media. Cells were pelleted and stained with an APC conjugated mouse anti-human ICAM-1 (CD54) (BD Pharmingen, San Diego, Calif., Catalog #559771) antibody for 20 minutes at 4° C. Cells were washed with ice cold FACS buffer (PBS+2% FBS) and surface ICAM-1 expression was analyzed by flow cytometry. Detection was performed using a BD LSR I System Flow Cytometer, purchased from BD Biosciences of San Jose, Calif. Events were gated for live scatter and the geometric mean was calculated (Becton-Dickinson CellQuest software version 3.3, Franklin Lakes, N.J.). Geometric means were plotted against the compound concentration to generate a dose response curve.

SMILES | pIC50 [1] | pIC50 [2] | pIC50 [3]
CCCN(Cc1ccc(Nc2nc(Nc3ccc(S(N)(=O)=O)cc3)ncc2F)cc1)S(=O)(=O)CC [Compound I-17, N2-(4-aminosulfonyl)phenyl-N4-[4-(N-ethylsulfonyl-N-propylamino)methyl]phenyl-5-fluoro-2,4-pyrimidinediamine] | 6.78 | 5.97 | 5.08
CC(C)S(=O)(=O)NCc1ccc(Nc2nc(Nc3ccc(S(N)(=O)=O)cc3)ncc2F)cc1 [Compound I-65, N2-(4-aminosulfonyl)phenyl-5-fluoro-N4-(4-isopropylsulfonylaminomethyl)phenyl-2,4-pyrimidinediamine] | 6.68 | 6.20 | 4.98
